# Patent US7019002B2, “Pyridopyrimidinones derivatives as telomerase inhibitors” (Pharmacia & Upjohn, S.p.A., priority 2001, dated 2006)
# Target: T1, telomerase enzyme (Homo sapiens, UniProt O14746)
# T1 construct: telomerase enzyme diluted in a buffer
# Assay: Flash Plate-based telomerase activity assay
# Assay type: biochemical
# Conditions: telomerase inhibition; two hours of incubation at 37°; Flash Plate readout, Sigma Plot fit
# Method: The telomerase activity of compounds of the invention have been evaluated using a Flash Plate-based assay.
# Briefly the assay mixture is constituted of: • telomerase enzyme diluted in a buffer, the composition of which has been selected to maintain the enzyme activity stable along the duration of the assay. • dNTPs, deoxynucleotides 5′-triphosphate. • biotinylated oligo as primer. • increasing concentrations of test compounds/positive control.
# After two hours of incubation at 37° degrees the telomeric repeats added are evaluated by hybridization in solution with a 3′-labeled short oligonucleotide probe.
# The extent of hybridization is then quantitated by transferring the reaction mixture in a streptavidin-coated flash plate, where the binding between biotin and streptavidin occurs.
# The telomerase activity is proportional to the radioactivity measured and the inhibitory activity of the compounds is evaluated as IC50 using the Sigma Plot fit program.
# With the above-described method IC50 values of the compounds of the present invention were determined.
# T1 sequence (O14746 whole entry): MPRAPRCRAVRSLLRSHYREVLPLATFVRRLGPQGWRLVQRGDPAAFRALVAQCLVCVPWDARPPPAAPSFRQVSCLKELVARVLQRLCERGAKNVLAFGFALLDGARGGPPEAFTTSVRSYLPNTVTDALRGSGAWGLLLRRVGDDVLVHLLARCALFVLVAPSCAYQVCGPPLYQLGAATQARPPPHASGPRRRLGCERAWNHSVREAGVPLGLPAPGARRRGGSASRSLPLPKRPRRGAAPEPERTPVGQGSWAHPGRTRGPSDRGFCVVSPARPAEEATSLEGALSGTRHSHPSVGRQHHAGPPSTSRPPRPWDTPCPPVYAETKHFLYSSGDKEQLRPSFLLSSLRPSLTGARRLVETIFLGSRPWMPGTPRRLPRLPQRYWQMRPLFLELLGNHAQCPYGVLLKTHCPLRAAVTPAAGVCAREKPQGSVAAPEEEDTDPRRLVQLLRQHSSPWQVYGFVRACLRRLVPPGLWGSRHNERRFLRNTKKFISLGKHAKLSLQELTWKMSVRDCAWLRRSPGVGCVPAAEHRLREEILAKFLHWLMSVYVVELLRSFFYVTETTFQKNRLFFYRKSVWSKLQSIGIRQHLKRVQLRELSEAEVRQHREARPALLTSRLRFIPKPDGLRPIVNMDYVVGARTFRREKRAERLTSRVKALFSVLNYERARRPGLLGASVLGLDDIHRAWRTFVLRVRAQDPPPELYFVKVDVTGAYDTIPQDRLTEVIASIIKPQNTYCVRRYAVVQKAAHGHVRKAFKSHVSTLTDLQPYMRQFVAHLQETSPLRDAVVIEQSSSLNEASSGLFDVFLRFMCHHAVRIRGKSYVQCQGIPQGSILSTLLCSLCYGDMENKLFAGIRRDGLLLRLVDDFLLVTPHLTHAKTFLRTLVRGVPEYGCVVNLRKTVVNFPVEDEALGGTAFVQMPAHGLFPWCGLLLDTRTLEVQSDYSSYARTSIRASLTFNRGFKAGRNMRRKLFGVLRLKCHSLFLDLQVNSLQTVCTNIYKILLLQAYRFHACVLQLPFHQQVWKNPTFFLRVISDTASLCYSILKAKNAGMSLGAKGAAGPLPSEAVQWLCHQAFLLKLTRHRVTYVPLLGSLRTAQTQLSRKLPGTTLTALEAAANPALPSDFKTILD
row,Compound,IC50 [µM]
1,"COc1ccc(NC(=O)c2ccc(-n3c(=O)ccc4c(C)nc(N5CCc6ccccc6C5)nc43)cc2)cc1OC [Compound 34, 4-(2-(3,4-dihydro-2(1H)-isoquinolinyl)-4-methyl-7-oxopyrido[2,3-d]pyrimidin-8(7H)-yl)-N-(3,4-dimethoxyphenyl)benzamide]",8.2
2,"Cc1nc(N2CCN(c3ncccn3)CC2)nc2c1ccc(=O)n2-c1ccc(C(=O)NCc2cccnc2)cc1 [Compound 30, 4-(4-methyl-7-oxo-2-[4-(2-pyrimidinyl)-1-piperazinyl]pyrido[2,3-d]pyrimidin-8(7H)-yl)-N-(3-pyridinylmethyl)benzamide]",9.4
3,"Cc1nc(N2CCN(c3ncccn3)CC2)nc2c1ccc(=O)n2-c1ccc(C(=O)NCc2cccc3ccccc23)cc1 [Compound 32, 4-(4-methyl-7-oxo-2-[4-(2-pyrimidinyl)-1-piperazinyl]pyrido[2,3-d]pyrimidin-8(7H)-yl)-N-(1-naphthylmethyl)benzamide]",1.25
4,"CCCCCCCCNC(=O)c1ccc(-n2c(=O)ccc3c(C)nc(NCC(C)C)nc32)cc1 [Compound 43, 4-(2-Isobutylamino-4-methyl-7-oxo-7H-pyrido[2,3-d]pyrimidin-8-yl)-N-octyl-benzamide]",6.1
5,"Cc1nc(N2CCc3ccccc3C2)nc2c1ccc(=O)n2-c1ccc(C(=O)NC2CCCCC2)cc1 [Compound 39, N-cyclohexyl-4-(2-(3,4-dihydro-2(1H)-isoquinolinyl)-4-methyl-7-oxopyrido[2,3-d]pyrimidin-8(7H)-yl)benzamide]",1.4
6,"Cc1nc(N2CCc3ccccc3C2)nc2c1ccc(=O)n2-c1ccc(C(=O)Nc2cccc(C#N)c2)cc1 [Compound 38, N-(3-cyanophenyl)-4-(2-(3,4-dihydro-2(1H)-isoquinolinyl)-4-methyl-7-oxopyrido[2,3-d]pyrimidin-8(7H)-yl)benzamide]",1.6
7,"COC(=O)c1ccc(Nc2nc(C)c3ccc(=O)n(-c4ccc(C(=O)OC)cc4)c3n2)cc1 [Compound 41, methyl 4-({8-[4-(methoxycarbonyl)phenyl]-4-methyl-7-oxo-7,8-dihydropyrido[2,3-d]pyrimidin-2-yl}amino)benzoate]",3.1
8,"CCOC(=O)c1ccc(Nc2nc(C)c3ccc(=O)n(-c4ccc(C(=O)OCC)cc4)c3n2)cc1 [Compound 42, Ethyl 4-({8-[4-(ethoxycarbonyl)phenyl]-4-methyl-7-oxo-7,8-dihydropyrido[2,3-d]pyrimidin-2-yl}amino)benzoate]",4.6
9,"Cc1nc(N2CCc3ccccc3C2)nc2c1ccc(=O)n2-c1ccc(C(=O)NC2CC2)cc1 [Compound 33, N-cyclopropyl-4-(2-(3,4-dihydro-2(1H)-isoquinolinyl)-4-methyl-7-oxopyrido[2,3-d]pyrimidin-8(7H)-yl)benzamide]",1.1
10,"Cc1nc(N2CCc3ccccc3C2)nc2c1ccc(=O)n2-c1ccc(C(=O)N(C)C)cc1 [Compound 35, 4-(2-(3,4-dihydro-2(1H)-isoquinolinyl)-4-methyl-7-oxopyrido[2,3-d]pyrimidin-8(7H)-yl)-N,N-dimethylbenzamide]",1.9
11,"COc1ccc(CNC(=O)c2ccc(-n3c(=O)ccc4c(C)nc(N5CCN(c6ccccn6)CC5)nc43)cc2)cc1OC [Compound 25, N-(3,4-dimethoxybenzyl)-4-(4-methyl-7-oxo-2-[4-(2-pyridinyl)-1-piperazinyl]pyrido[2,3-d]pyrimidin-8(7H)-yl)benzamide]",1.7
12,"Cc1nc(N2CCN(c3ncccn3)CC2)nc2c1ccc(=O)n2-c1ccc(C(=O)NCc2ccc(F)cc2F)cc1 [Compound 31, N-(2,4-difluorobenzyl)-4-(4-methyl-7-oxo-2-[4-(2-pyrimidinyl)-1-piperazinyl]pyrido[2,3-d]pyrimidin-8(7H)-yl)benzamide]",9.4
13,"Cc1nc(N2CCN(c3ncccn3)CC2)nc2c1ccc(=O)n2-c1ccc(C(=O)NCc2ccccc2)cc1 [Compound 27, N-benzyl-4-(4-methyl-7-oxo-2-[4-(2-pyrimidinyl)-1-piperazinyl]pyrido[2,3-d]pyrimidin-8(7H)-yl)benzamide]",3.9
14,"Cc1nc(N2CCN(c3ccc(F)cc3)CC2)nc2c1ccc(=O)n2-c1ccc(C(=O)NCc2ccccc2)cc1 [Compound 20, N-benzyl-4-(2-[4-(4-fluorophenyl)-1-piperazinyl]-4-methyl-7-oxopyrido[2,3-d]pyrimidin-8(7H)-yl)benzamide]",6.1
15,"Cc1nc(N2CCN(c3ccc(F)cc3)CC2)nc2c1ccc(=O)n2-c1ccc(C(=O)NCc2ccco2)cc1 [Compound 21, 4-(2-[4-(4-fluorophenyl)-1-piperazinyl]-4-methyl-7-oxopyrido[2,3-d]pyrimidin-8(7H)-yl)-N-(2-furylmethyl)benzamide]",21.8
16,"Cc1nc(N2CCc3ccccc3C2)nc2c1ccc(=O)n2-c1ccc(C(=O)NCCC[N+](C)(C)[O-])cc1 [Compound 46, 4-(2-(3,4-dihydro-2(1H)-isoquinolinyl)-4-methyl-7-oxopyrido[2,3-d]pyrimidin-8(7H)-yl)-N-[3-(dimethylamino-N-oxido)propyl]benzamide]",2.6
17,"Cc1nc(N2CCc3ccccc3C2)nc2c1ccc(=O)n2-c1ccc(C(=O)NCC[N+]2([O-])CCOCC2)cc1 [Compound 45, 4-[2-(3,4-Dihydro-1H-isoquinolin-2-yl)-4-methyl-7-oxo-7H-pyrido[2,3-d]pyrimidin-8-yl]-N-[2-(4-oxy-morpholin-4-yl)-ethyl]-benzamide]",7.3
18,"CCOC(=O)c1ccc(NC(=O)c2ccc(-n3c(=O)ccc4c(C)nc(N5CCc6ccccc6C5)nc43)cc2)cc1 [Compound 37, Ethyl 4-{[4-(2-(3,4-dihydro-2(1H)-isoquinolinyl)-4-methyl-7-oxopyrido[2,3-d]pyrimidin-8(7H)-yl)benzoyl]amino}benzoate]",2.9
19,"Cc1nc(N2CCN(c3ccccn3)CC2)nc2c1ccc(=O)n2-c1ccc(C(=O)NCc2ccco2)cc1 [Compound 24, N-(2-furylmethyl)-4-(4-methyl-7-oxo-2-[4-(2-pyridinyl)-1-piperazinyl]pyrido[2,3-d]pyrimidin-8(7H)-yl)benzamide]",3.8
20,"COc1ccc(CNC(=O)c2ccc(-n3c(=O)ccc4c(C)nc(N5CCc6ccccc6C5)nc43)cc2)cc1OC [Compound 36, 4-(2-(3,4-dihydro-2(1H)-isoquinolinyl)-4-methyl-7-oxopyrido[2,3-d]pyrimidin-8(7H)-yl)-N-(3,4-dimethoxybenzyl)benzamide]",2
21,"Cc1nc(N2CCN(c3ncccn3)CC2)nc2c1ccc(=O)n2-c1ccc(C(=O)NCc2ccco2)cc1 [Compound 28, N-(2-furylmethyl)-4-(4-methyl-7-oxo-2-[4-(2-pyrimidinyl)-1-piperazinyl]pyrido[2,3-d]pyrimidin-8(7H)-yl)benzamide]",16.6
22,"Cc1nc(NCC(C)C)nc2c1ccc(=O)n2-c1ccc(C(=O)Nc2ccccc2)cc1 [Compound 44, 4-(2-Isobutylamino-4-methyl-7-oxo-7H-pyrido[2,3-d]pyrimidin-8-yl)-N-phenyl-benzamide]",19.1
